Laboratory results reported in patent US20250319095A1, “USE OF BENZO[…] INCREASE SENSITIVITY TO […] A CHRONIC SSRI REGIMEN” (Compass Pathfinder Limited, priority 2020, published 2025).
“And” between values parts separate entries of the source, which are not always exact repeats. Identical values can stand only once.

How the values were obtained:
5HT2A = target: T1, 5HT2A (Mus musculus, UniProt P35363); assay: [3H]MDL100907 binding in frontal cortical membranes (5HT2A Kd and Bmax)
T1 construct: homogenates were prepared from frontal cortices sampled from groups E and F; from tissue; host or cells: mouse frontal cortex membranes (homogenate)
T1 sequence (P35363 whole entry): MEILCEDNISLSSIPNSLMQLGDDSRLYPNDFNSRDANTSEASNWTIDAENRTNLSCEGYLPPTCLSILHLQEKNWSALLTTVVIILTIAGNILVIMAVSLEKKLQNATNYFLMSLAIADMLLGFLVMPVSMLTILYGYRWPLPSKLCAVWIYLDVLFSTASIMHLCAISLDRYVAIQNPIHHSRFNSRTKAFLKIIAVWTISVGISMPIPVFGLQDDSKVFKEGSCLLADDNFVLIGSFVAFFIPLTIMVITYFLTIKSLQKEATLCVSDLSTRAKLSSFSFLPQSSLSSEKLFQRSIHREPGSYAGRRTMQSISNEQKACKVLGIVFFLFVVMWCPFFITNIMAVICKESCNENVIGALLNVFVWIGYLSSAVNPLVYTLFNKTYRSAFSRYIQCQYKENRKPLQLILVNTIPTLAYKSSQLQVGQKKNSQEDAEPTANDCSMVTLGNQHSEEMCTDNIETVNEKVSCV
Method: To prepare the homogenate, frontal cortices from each animal were homogenized individually in 40 volumes (w/v) of ice cold assay buffer using a tight-fitting glass/Teflon homogenizer and centrifuged at 39,500×g for 10 min. The supernatant was discarded, and the pellet re-suspended in 40 volumes (w/v) of assay buffer and the tissue washed by centrifugation two more times. The final pellet was re-suspended in ice-cold assay buffer to 6.25 mg weight wet of tissue/ml and used immediately in the binding assay. Aliquots of final membrane preparations were also stored at −80 C until required for protein determination. All centrifugations will be carried out at 4° C.
To examine binding, the frontal cortical membranes (400 μl; equivalent to 2.5 mg wet weight of tissue/tube) were incubated with 50 μl of [3H] MDL 100907 (8 concentrations: 0.025, 0.05, 0.1, 0.2, 0.4, 0.8, 1.6, 3.2 nM) and either 50 μl of buffer (total binding) or 50 μl of 10 μM ketanserin (to define nonspecific binding) for 60 min at 25 C. […]
Membrane bound radioactivity was recovered by filtration under vacuum through Skatron 11731 filters, presoaked in 0.5% polyethylenimine (PEI) using a Skatron cell harvester. Filters were rapidly washed with ice cold wash buffer (wash setting 9,9,0) and radioactivity determined by liquid scintillation counting (1 ml Packard MV Gold scintillator). […]

male C57BL/6J mice = assay: Psilocybin head twitch response with chronic diazepam pre-treatment; type: in vivo
Method: Sixty-two (60 plus 2 spares;) male C57BL/6J mice (20-25 g upon arrival) were purchased from Charles River UK. Animals were group housed (in 3 s and a pair) in polypropylene cages. Mice were maintained on a normal phase 12 h light-dark cycle (lights on: 07:00-19:00 h) with free access to standard rodent maintenance diet (standard pelleted diet Envigo 2018) and filtered tap water. The holding room was maintained at a temperature of 21±4° C. and relative humidity was 55±15% with prolonged periods below 40% RH or above 70% RH avoided as detailed in the UK Code of Practice. As a refinement, each cage contained sawdust, sizzle nest, a red house, Perspex tunnel, plastic chew stick and a nestlet so that the mice can make nests and facilitate warmth. Mice were weighed upon arrival and provided with wet mash overnight. The following morning, mice were weighed, and the mash removed.
Mice were weighed and allocated into 6 treatment groups by a statistician (as per Table 20 below). […] For groups A-D animals were placed individually in clean cages with a light dusting of sawdust immediately following psilocybin administration (0.3 mg/kg, s.c) for head twitch response assessment. Head twitches were counted by a trained observer over a 30 minute period.
Statistical significance was tested using two-way analysis of variance with treatment and observer as cofactors (Table 21 below).

[1] = oral dose equivalence; cited from earlier work

Structure (SMILES)	Relative Potency [1] [mg]	further results
CN1C(=O)CN=C(c2ccccc2)c2cc(Cl)ccc21 [Diazepam, diazepam]		Bmax (fmoles/mg protein) (5HT2A): 271 fmoles/mg protein and 339 fmoles/mg protein and 334 fmoles/mg protein and 360 fmoles/mg protein and 314 fmoles/mg protein and 376 fmoles/mg protein; Bmax (pM) (5HT2A): 74.0 pM and 78.3 pM and 77.8 pM and 93.6 pM and 87.2 pM and 87.6 pM; psilocybin HTR, change with diazepam pretreatment (male C57BL/6J mice; 2 h post diazepam pretreatment): trend increase; HTR, change with diazepam pretreatment (male C57BL/6J mice; HTR at 10-15 and 20-25 minutes analyzed separately): significant increase; HTR, change with diazepam pretreatment (male C57BL/6J mice; over 30 minutes): trend increase
CN1C(=O)C(O)N=C(c2ccccc2)c2cc(Cl)ccc21 (stereo not drawn) [Temazepam, temazepam]	10	
O=C1CN=C(c2ccccc2Cl)c2cc([N+](=O)[O-])ccc2N1 [Clonazepam, clonazepam]	0.25 to 0.5	
Cc1nnc2n1-c1ccc(Cl)cc1C(c1ccccc1Cl)=NC2 [Triazolam, triazolam]	0.25	
O=C1Nc2ccc(Cl)cc2C(c2ccccc2Cl)=NC1O (stereo not drawn) [Lorazepam, lorazepam]	1	
Cc1nnc2n1-c1ccc(Cl)cc1C(c1ccccc1)=NC2 [Alprazolam, alprazolam]	0.5	
Clc1ccc2c(c1)C(c1ccccc1)=NCc1nncn1-2 [Estazolam, estazolam]	0.5 to 1	
Fc1ccccc1C1=NCC(=S)N(CC(F)(F)F)c2ccc(Cl)cc21 [Quazepam, quazepam]	13	
CCN(CC)CCN1C(=O)CN=C(c2ccccc2F)c2cc(Cl)ccc21 [Flurazepam, flurazepam]	10	
O=C(O)C1N=C(c2ccccc2)c2cc(Cl)ccc2NC1=O (stereo not drawn) [Clorazepate, clorazepate]	7	
Cc1ncc2n1-c1ccc(Cl)cc1C(c1ccccc1F)=NC2 [Midazolam, midazolam]	3.3	
